The values that follow come from publication PMC6804162, “Inhibitory Effects of Novel 7-Substituted 6-iodo-3-O-Flavonol Glycosides against Cholinesterases and β-secretase Activities, and Evaluation for Potential Antioxidant Properties” (Molecules, 2019).

Assay [1] concerns the target acetylcholinesterase (AChE) (Homo sapiens, UniProt P22303). As to the kind of experiment: biochemical. The format is biochemical. The note with it: for SI BChE/AChE: AChE selectivity index = IC50 (BChE)/IC50 (AChE); for IC50: mean ± SD, three independent experiments. The protocol:
(§1) The IC50 and standard deviation values were determined graphically using Graph Pad Prism.

Assay [2] concerns the target butyrylcholinesterase (BChE) (Homo sapiens, UniProt P06276). Nature of the assay: biochemical. The note with it: for SI AChE/BChE: BChE selectivity index = IC50 (AChE)/IC50 (BChE); for IC50: mean ± SD, three independent experiments. As for the experimental part: as §1

butyrylcholinesterase (BChE), sequence (P06276 29-602): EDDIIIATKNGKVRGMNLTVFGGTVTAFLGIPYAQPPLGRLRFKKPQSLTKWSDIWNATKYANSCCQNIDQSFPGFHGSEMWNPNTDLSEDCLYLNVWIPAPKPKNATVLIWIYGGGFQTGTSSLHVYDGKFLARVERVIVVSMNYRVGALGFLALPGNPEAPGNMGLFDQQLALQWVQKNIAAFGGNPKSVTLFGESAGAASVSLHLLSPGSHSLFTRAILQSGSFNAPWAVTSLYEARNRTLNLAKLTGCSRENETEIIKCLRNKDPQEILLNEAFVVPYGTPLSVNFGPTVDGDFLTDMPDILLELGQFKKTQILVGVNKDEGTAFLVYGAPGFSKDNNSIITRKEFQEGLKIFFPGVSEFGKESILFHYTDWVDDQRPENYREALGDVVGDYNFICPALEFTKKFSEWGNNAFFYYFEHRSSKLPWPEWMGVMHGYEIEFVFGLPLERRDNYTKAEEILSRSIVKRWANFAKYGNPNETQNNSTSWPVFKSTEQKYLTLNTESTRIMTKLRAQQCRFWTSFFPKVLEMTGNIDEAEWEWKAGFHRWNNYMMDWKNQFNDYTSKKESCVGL
acetylcholinesterase (AChE), sequence (P22303 32-614): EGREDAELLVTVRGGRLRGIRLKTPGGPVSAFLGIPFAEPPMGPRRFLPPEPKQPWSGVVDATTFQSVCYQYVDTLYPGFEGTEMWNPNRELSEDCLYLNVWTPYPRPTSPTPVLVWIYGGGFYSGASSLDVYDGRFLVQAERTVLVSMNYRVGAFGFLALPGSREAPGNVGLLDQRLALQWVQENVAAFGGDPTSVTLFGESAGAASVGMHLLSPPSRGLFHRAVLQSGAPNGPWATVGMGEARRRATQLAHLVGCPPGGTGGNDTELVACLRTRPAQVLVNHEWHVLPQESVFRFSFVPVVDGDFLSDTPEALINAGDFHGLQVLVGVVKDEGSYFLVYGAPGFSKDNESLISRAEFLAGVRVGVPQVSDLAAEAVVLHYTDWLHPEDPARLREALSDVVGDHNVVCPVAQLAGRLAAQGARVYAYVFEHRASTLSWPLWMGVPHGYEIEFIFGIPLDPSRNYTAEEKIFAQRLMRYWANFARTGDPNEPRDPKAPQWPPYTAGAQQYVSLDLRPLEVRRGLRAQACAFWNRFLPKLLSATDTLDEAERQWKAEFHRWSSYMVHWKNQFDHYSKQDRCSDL

With `COc1cc2oc(-c3ccccc3)c(O[C@@H]3O[C@H](COC(C)=O)[C@@H](OC(C)=O)[C@H](OC(C)=O)[C@H]3OC(C)=O)c(=O)c2cc1I` [Compound 2m, 6-Iodo-7-methoxy-2-phenyl-4H-chromen-4-one-3-O-2,3,4,6-O-tetraacetyl-β-d-glucopyranoside], in assay [1], the “SI BChE/AChE” value was 0.53 and half-maximal inhibition (IC50) required 56.21 ± 0.01 µM. Also, in assay [2], the “SI AChE/BChE” value was determined as 1.89 and the IC50 – broadly, the point on the concentration scale where inhibition reaches its midpoint – is 29.8 ± 0.06 µM.
As for `COc1cc2oc(-c3ccc(Cl)cc3)c(O[C@@H]3O[C@H](COC(C)=O)[C@@H](OC(C)=O)[C@H](OC(C)=O)[C@H]3OC(C)=O)c(=O)c2cc1I` [Compound 2o, 2-(4-Chlorophenyl)-6-iodo-7-methoxy-4H-chromen-4-one-3-O-2,3,4,6-O-tetraacetyl-β-d-glucopyranoside], in assay [1], the “SI BChE/AChE” value came to 1.28 and inhibition was half-maximal at 28.12 ± 0.06 µM (IC50). For the same compound, in assay [2], the “SI AChE/BChE” value is given as 0.78 and the midpoint of inhibition, the IC50, lay at 36.1 ± 0.02 µM.
In the same order, the values of `CC(=O)OC[C@H]1O[C@@H](Oc2c(-c3ccc(F)cc3)oc3cc(Br)c(I)cc3c2=O)[C@H](OC(C)=O)[C@@H](OC(C)=O)[C@@H]1OC(C)=O` [Compound 2j, 7-Bromo-2-(4-fluorophenyl)-6-iodo-4H-chromen-4-one-3-O-2,3,4,6-O-tetraacetyl-β-d-glucopyranoside] are 1.31, 31.2 ± 0.05 µM, 0.76 and 40.93 ± 0.04 µM.
For the compound `CC(=O)OC[C@H]1O[C@@H](Oc2c(-c3ccccc3)oc3cc(F)c(I)cc3c2=O)[C@H](OC(C)=O)[C@@H](OC(C)=O)[C@@H]1OC(C)=O` [Compound 2a, 7-Fluoro-6-iodo-2-phenyl-4H-chromen-4-one-3-O-2,3,4,6-O-tetraacetyl-β-d-glucopyranoside], in assay [1], the “SI BChE/AChE” value is 1.40 and 18.72 ± 0.03 µM corresponded to half-maximal inhibition (IC50). In assay [2], the “SI AChE/BChE” value came to 0.71 and the 50% inhibitory concentration (IC50) was 26.17 ± 0.01 µM.
In the same order, the values of `COc1ccc(-c2oc3cc(Cl)c(I)cc3c(=O)c2O[C@@H]2O[C@H](COC(C)=O)[C@@H](OC(C)=O)[C@H](OC(C)=O)[C@H]2OC(C)=O)cc1` [Compound 2h, 7-Chloro-6-iodo-2-(4-methoxyphenyl)-4H-chromen-4-one-3-O-2,3,4,6-O-tetraacetyl-β-d-glucopyranoside] are 0.39, 25.92 ± 0.02 µM, 2.56 and 10.1 ± 0.06 µM.
Regarding `CC(=O)OC[C@H]1O[C@@H](Oc2c(-c3ccc(F)cc3)oc3cc(Cl)c(I)cc3c2=O)[C@H](OC(C)=O)[C@@H](OC(C)=O)[C@@H]1OC(C)=O` [Compound 2f, 7-Chloro-2-(4-fluorophenyl)-6-iodo-4H-chromen-4-one-3-O-2,3,4,6-O-tetraacetyl-β-d-glucopyranoside], in assay [1], the “SI BChE/AChE” value amounted to 0.44 and it took 70.66 ± 0.01 µM to reach half-maximal inhibition (IC50). In assay [2], the “SI AChE/BChE” value was found to be 2.27 and the 50% inhibitory concentration (IC50) turned out to be 31.09 ± 0.04 µM.
As to `CC(=O)OCC1OC(Oc2c(-c3ccccc3)oc3cc(Cl)c(I)cc3c2=O)C(OC(C)=O)C(OC(C)=O)C1OC(C)=O` (stereo not drawn) [Compound 2e, 7-Chloro-6-iodo-2-phenyl-4H-chromen-4-one-3-O-2,3,4,6-O-tetraacetyl-β-d-glucopyranoside], in assay [1], the “SI BChE/AChE” value is on record as 0.26 and the IC50 was found to be 34.44 ± 0.03 µM. In assay [2], the “SI AChE/BChE” value was found to be 3.85 and the IC50 is 9.03 ± 0.12 µM.
As for `CC(=O)OC[C@H]1O[C@@H](Oc2c(-c3ccccc3)oc3cc(Br)c(I)cc3c2=O)[C@H](OC(C)=O)[C@@H](OC(C)=O)[C@@H]1OC(C)=O` [Compound 2i, 7-Bromo-6-iodo-2-phenyl-4H-chromen-4-one-3-O-2,3,4,6-O-tetraacetyl-β-d-glucopyranoside], in assay [1], the “SI BChE/AChE” value was 0.14 and 70.56 ± 0.03 µM corresponded to half-maximal inhibition (IC50). Moreover, in assay [2], the “SI AChE/BChE” value was 7.14 and 9.79 ± 0.04 µM corresponded to half-maximal inhibition (IC50).
